Data: patent publication US5965088A, “Method for providing rapid disinfection of contact lenses” (priority 1997, dated 1999)
Like-named read-outs stand apart in the source and are kept apart here.

Tested on: Staphylococcus aureus (ATCC 6538)
Experiment: Antimicrobial efficacy (stand-alone log reduction), S. aureus
Assay type: cell-based
Settings: for log reduction at 4 ppm / log reduction at 1 ppm / log reduction at 2 ppm / log reduction at 3 ppm / log reduction at 5 ppm / log reduction at 4 µg/mL: Staphylococcus aureus; for log reduction at 4 µg/mL: 4.0 ppm alexidine in ReNu MPS
Description: This Example illustrates the microbiocidal efficacy of solutions according to the present invention. The antimicrobial efficacy of each of various compositions for the chemical disinfection of contact lenses was evaluated. Microbial challenge inoculums were prepared using Pseudomonas aeruginosa (ATCC 9027), Staphylococcus aureus (ATCC 6538), Serratia marcescens (ATCC 13880), Candida albicans (ATCC 10231), and Fusarium solani (ATCC 36031). The test organisms were cultured on appropriate agar and the cultures were harvested using sterile DPBST (Dulbecco's Phosphate Buffered Saline plus 0.05% w/v polysorbate 80) or a suitable diluent and transferred to a suitable vessel. Spore suspensions were filtered through sterile glass wool to remove hyphal fragments. Serratia marcescens, as appropriate, was filtered (eg., through a 1.2 μ filter) to clarify the suspension. After harvesting, the suspension was centrifuged at no more than 5000× g for a maximum of 30 minutes at 20-25° C. The supernatant was poured off and resuspended in DPBST or other suitable diluent. The suspension was centrifuged a second time, and resuspended in DPBST or other suitable diluent. All challenge bacterial and fungal cell suspensions were adjusted with DPBST or other suitable diluent to 1×10^7 -10^8 cfu/mL. The appropriate cell concentration may be estimated by measuring the turbidity of the suspension, for example using a spectrophotometer at a preselected wavelength, for example 490 nm. One tube was prepared containing a minimum of 10 mL of test solution per challenge organism. Each tube of the solution to be tested was inoculated with a suspension of the test organism sufficient to provide a final count of 1.0×10^5 -10^6 cfu/mL, the volume of the inoculum not exceeding 1% of the sample volume. Dispersion of the inoculum was ensured by vortexing the sample for at least 15 seconds. The inoculated product was stored at 10-25° C. Aliquots in the amount of 1.0 mL were taken of the inoculated product for determination of viable counts after certain time periods of disinfection. The time points for the bacteria were 25, 50, 75, and 100% of the minimum disinfection time. Yeast and mold were tested at an additional timepoint of at least 400% of the minimum disinfection time. The suspension was mixed well by vortexing vigorously for at least 5 second. The 1.0 mL aliquots removed at the specified time intervals were subjected to a suitable series of decimal dilutions in validated neutralizing media. The suspensions were mixed vigorously and incubated for a suitable period of time to allow for neutralization of the microbial agent. The viable count of organisms was determined in appropriate dilutions by preparation of triplicate plates of trypticase soy (TSA) agar for bacteria and Sabouraud dextrose agar (SDA) for mold and yeast. The bacterial recovery plates were incubated at 30-35° C. for 2-4 days. The yeast was incubated at 20-30° C. for 2-4 days and mold recovery plates at 20-25° C. for 3-7 days. The average number of colony forming units was determined on countable plates. Countable plates refer to 30-300 cfu/plates for bacteria and yeast, and 8 to 80 cfu/plate for mold except when colonies are observed only for the 10^0 or 10^-1 dilution plates. The microbial reduction was then calculated at the specified time points. […] Following inoculation in a validated neutralizing broth and incubation for an appropriate period of time, the inoculum control must be between 1.0×10^5 -1.0×10^6 cfu/mL
The solutions were evaluated based on the performance requirement referred to as the "Stand-Alone Procedure for Disinfecting Products" (hereafter the "stand-alone test") and is based on the Disinfection Efficacy Testing for contact lens care products under the Draft Premarket Notification (510(k)) Guidance Document For Contact Lens Care Products dated Apr. 1, 1996, prepared by the U.S. Food and Drug Administration, Division of Ophthalmic Devices. […]

CCCCC(CC)CNC(=N)NC(=N)NCCCCCCNC(=N)NC(=N)NCC(CC)CCCC.Cl.Cl (centres unmarked) [Alexidine.2HCl, 1,1 '-hexamethylenebis(5-(2-ethylhexyl)-biguanide) dihydrochloride]
stand-alone test, 15 minute time point (4.0 ppm, Example 6, 15 min): the 15 minute time point failed
log reduction at 4 ppm (ATCC6538, 2.5 min): 2
log reduction at 4 ppm (ATCC6538, 2.5 min, 4.0 ppm, aged 18 months, Exp. 1, 2.5 min, read-out: Log Reduction): 2.2
log reduction at 4 ppm (ATCC6538, 2.5 min, 4.0 ppm, aged 18 months, Exp. 2, 2.5 min, read-out: Log Reduction): 1.6
log reduction at 1 ppm (ATCC6538, 5 min, 1.0 ppm, read-out: Log Reduction at 5 Minutes): 0.7
log reduction at 2 ppm (ATCC6538, 5 min, 2.0 ppm, read-out: Log Reduction at 5 Minutes): 1.6
log reduction at 3 ppm (ATCC6538, 5 min, 3.0 ppm, read-out: Log Reduction at 5 Minutes): 2.6
log reduction at 4 ppm (ATCC6538, 5 min, 4.0 ppm, aged 18 months, Exp. 1, 5.0 min, read-out: Log Reduction): 2.7
log reduction at 4 ppm (ATCC6538, 5 min, 4.0 ppm, aged 18 months, Exp. 2, 5.0 min, read-out: Log Reduction): 2
log reduction at 4 ppm (ATCC6538, 5 min, 4.0 ppm, aged 18 months, Exp. 3, 5.0 min, read-out: Log Reduction): 2.8
log reduction at 4 ppm (ATCC6538, 5 min, 4.0 ppm, read-out: Log Reduction at 5 Minutes): 4.8
log reduction at 5 ppm (ATCC6538, 5 min, 5.0 ppm, read-out: Log Reduction at 5 Minutes): 4.8
log reduction at 4 ppm (ATCC6538, 0.125 h): 2.3
log reduction at 4 ppm (ATCC6538, 0.125 h, 4.0 ppm, aged 18 months, Exp. 1, 7.5 min, read-out: Log Reduction): 3.1
log reduction at 4 ppm (ATCC6538, 0.125 h, 4.0 ppm, aged 18 months, Exp. 3, 7.5 min, read-out: Log Reduction): 3.4
log reduction at 1 ppm (ATCC6538, 10 min, 1.0 ppm, read-out: Log Reduction at 10 Minutes): 1
log reduction at 2 ppm (ATCC6538, 10 min, 2.0 ppm, read-out: Log Reduction at 10 Minutes): 2.6
log reduction at 3 ppm (ATCC6538, 10 min, 3.0 ppm, read-out: Log Reduction at 10 Minutes): 4
log reduction at 4 ppm (ATCC6538, 10 min, 4.0 ppm, aged 18 months, Exp. 1, 10.0 min, read-out: Log Reduction): 3.5
log reduction at 4 ppm (ATCC6538, 10 min, 4.0 ppm, aged 18 months, Exp. 2, 10.0 min, read-out: Log Reduction): 2.7
log reduction at 4 ppm (ATCC6538, 10 min, 4.0 ppm, aged 18 months, Exp. 3, 10.0 min, read-out: Log Reduction): 3.9
log reduction at 4 ppm (ATCC6538, 10 min, 4.0 ppm, read-out: Log Reduction at 10 Minutes): 4.8
log reduction at 5 ppm (ATCC6538, 10 min, 5.0 ppm, read-out: Log Reduction at 10 Minutes): > 4.8
log reduction at 4 ppm (ATCC6538, 0.25 h, 4.0 ppm, Ex. 6, aged 19 months at 25 °C, 15 min, read-out: Log Reduction): 2.5
log reduction at 4 ppm (ATCC6538, 0.25 h, 4.0 ppm, Ex. 7, different lot aged 18 months, 15 min, read-out: Log Reduction): 3.7
log reduction at 4 ppm (ATCC6538, 0.25 h, 4.0 ppm, Ex. 8, different batch aged 19 months at 25 °C, 15 min, read-out: Log Reduction): 3.5
log reduction at 4 ppm (ATCC6538, 0.5 h, 4.0 ppm, Ex. 6, aged 19 months at 25 °C, 30 min, read-out: Log Reduction): 4.4
log reduction at 4 ppm (ATCC6538, 0.5 h, 4.0 ppm, Ex. 7, different lot aged 18 months, 30 min, read-out: Log Reduction): 4.7
log reduction at 4 ppm (ATCC6538, 0.5 h, 4.0 ppm, Ex. 8, different batch aged 19 months at 25 °C, 30 min, read-out: Log Reduction): > 4.9
log reduction at 4 ppm (ATCC6538, 0.75 h, 4.0 ppm, Ex. 6, aged 19 months at 25 °C, 45 min, read-out: Log Reduction): > 4.9
log reduction at 4 ppm (ATCC6538, 0.75 h, 4.0 ppm, Ex. 7, different lot aged 18 months, 45 min, read-out: Log Reduction): > 4.8
log reduction at 4 ppm (ATCC6538, 0.75 h, 4.0 ppm, Ex. 8, different batch aged 19 months at 25 °C, 45 min, read-out: Log Reduction): > 4.9
log reduction at 1 ppm (ATCC6538, 1 h, 1 ppm, 1 hr, read-out: Log Reduction): 1.6
log reduction at 2 ppm (ATCC6538, 1 h, 2 ppm, 1 hr, read-out: Log Reduction): 4.3
log reduction at 3 ppm (ATCC6538, 1 h, 3 ppm, 1 hr, read-out: Log Reduction): > 4.8
log reduction at 4 µg/mL (ATCC6538, 1 h, 1 hr): > 4.9
log reduction at 4 ppm (ATCC6538, 1 h, 4 ppm, 1 hr, read-out: Log Reduction): > 4.8
log reduction at 4 ppm (ATCC6538, 1 h, 4.0 ppm, Ex. 6, aged 19 months at 25 °C, 60 min, read-out: Log Reduction): > 4.9
log reduction at 4 ppm (ATCC6538, 1 h, 4.0 ppm, Ex. 7, different lot aged 18 months, 60 min, read-out: Log Reduction): > 4.8
log reduction at 4 ppm (ATCC6538, 1 h, 4.0 ppm, Ex. 8, different batch aged 19 months at 25 °C, 60 min, read-out: Log Reduction): > 4.9
log reduction at 5 ppm (ATCC6538, 1 h, 5 ppm, 1 hr, read-out: Log Reduction): > 4.8
log reduction at 4 µg/mL (ATCC6538, 2 h, 2 hr): > 4.9
log reduction at 4 µg/mL (ATCC6538, 3 h, 3 hr): > 4.9
log reduction at 4 µg/mL (ATCC6538, 4 h, 4 hr): > 4.9
